Entries after “also recorded” stand apart in the source; their conditions may differ.
Tests used:
[1] = system: house dust mite-exposed mouse; assay: House dust mite allergy model, HDM-specific IgE by ELISA; format: in vivo; settings: SPLUNC1−/− mice, HDM challenge; α6 peptide intranasally day 15 and day 16; serum on day 17
Procedure: Nasal instillation of α6 peptides to mice: SPLUNC1^(−/−) mice were exposed to 2 μg house dust mite extract in 40 μl of PBS intranasally on days 0 and day 7. After this time, they were again challenged intranasally with 20 μg HDM in 40 μl of PBS from day 14 to day 16. We Then 320 μM of the short α6 peptide was added intranasally once per day on day 15 and on day 16 and the animals sacrificed on day 17. Bronchoalveolar lavage total and differential cell counts were performed using a Kwik-Diff™ Stain Kit (Thermo Scientific). After sacrificing the animals, blood was obtained by cardiac puncture and plasma was taken by spinning down whole blood. Serum HDM-specific antibody levels were measured using an enzyme-linked immunosorbent assay (ELISA). Briefly, plates were coated overnight with 0.01% HDM in PBS and blocked with 1% BSA in PBS before the addition of serum samples that had been diluted 1:10 in blocking buffer and standards for 1 h. […] Plates were washed an additional six times, streptavidin-HRP (R&D Systems) was added for 30 min and the amount of bound HDM-specific antibody was determined using TMB substrate (Thermo Scientific). […] Using the same SPLUNC1^(−/−) mice/HDM challenge as described in FIG. 15, serum was obtained on day 17 and IgE measured by ELISA.

[2] = system: house dust mite-exposed mouse; assay: House dust mite allergy model, bronchoalveolar lavage cell counts; format: in vivo; settings: SPLUNC1−/− mice, HDM challenge, day 17
Procedure: Nasal instillation of α6 peptides to mice: SPLUNC1^(−/−) mice were exposed to 2 μg house dust mite extract in 40 μl of PBS intranasally on days 0 and day 7. After this time, they were again challenged intranasally with 20 μg HDM in 40 μl of PBS from day 14 to day 16. We Then 320 μM of the short α6 peptide was added intranasally once per day on day 15 and on day 16 and the animals sacrificed on day 17. Bronchoalveolar lavage total and differential cell counts were performed using a Kwik-Diff™ Stain Kit (Thermo Scientific). After sacrificing the animals, blood was obtained by cardiac puncture and plasma was taken by spinning down whole blood. Serum HDM-specific antibody levels were measured using an enzyme-linked immunosorbent assay (ELISA). Briefly, plates were coated overnight with 0.01% HDM in PBS and blocked with 1% BSA in PBS before the addition of serum samples that had been diluted 1:10 in blocking buffer and standards for 1 h. Plates were washed 6× with PBS containing 0.05% Tween-20 before incubation with biotinylated anti-mouse IgE (Pharmingen) at a concentration of 2 μg/ml for 1 h. Plates were washed an additional six times, streptavidin-HRP (R&D Systems) was added for 30 min and the amount of bound HDM-specific antibody was determined using TMB substrate (Thermo Scientific). To test whether α6 peptides were efficacious in vivo, a well-characterized murine allergy model was used, the house dust mite-exposed mouse (Wu T et al., Nature Communications, 2017). Since SPLUNC1^(−/−) mice have asthma-like symptoms including spontaneous inflammation and airway hyperreactivity (Wu T et al., Nature Communications, 2017; Thaikoottathil et al., Am. J. Respir. Cell Mol. Biol. 47:253 (2012)), SPLUNC1^(−/−) mice were exposed to 20 μg HDM intranasally on day 0 and […]. After this time, they were challenged with 20 μg HDM intranasally from day 14 to day 17. […] of the short α6 peptide was administered intranasally once per day on day 15 and on day 16 and sacrificed the animals were sacrificed on day 17. Bronchoalveolar lavage was performed and total and differential cell counts performed (FIG. 15).

[3] = system: hASMCs; assay: Calcium imaging using fura-2 (thapsigargin-induced Ca2+ signaling); format: cell-based, human; settings: for thapsigargin (TG)-induced Ca2+ flux (peak fura-2 ratio change): human ASMCs, co-incubated 1 h; for ability to suppress Ca2+ signaling, SPLUNC1 mutants/peptides: ASMCs pre-incubated with truncated SPLUNC1 peptides (FIG. 4H)
Procedure: Calcium imaging: Calcium imaging using fura-2 was adapted from a previous published protocol with minor modifications (Sheridan et al., J. Biol. Chem. 288:33509 (2013)). Briefly, hASMCs were loaded with 2 μM fura-2 AM (Invitrogen) and serosal media from HBEC cultures or recombinant SPLUNC1 at 37° C. for 1 h. Cultures were washed with a standard Ringer's solution (101 mM NaCl, 12 mM NaHCO3, 1.2 mM MgCl2, 1.2 mM CaCl2, […], 24 mM HEPES, 10 mM glucose, pH 7.4) or with Ca^2+-free Ringer's solution as indicated. Cultures were then placed in the Ringer's solution, and images were collected with a 40×1.4 NA oil objective on a Nikon Ti-S inverted microscope. Fura-2 fluorescence was acquired alternately at 340 and 380 nm (emission >450 nm) using LUDL filter wheels, obtained with an Orca FLASH 4.0 CMOS camera (Hammamatsu), and controlled with HCImageLive software. Cell bodies were identified as individual regions of interest (ROIs). Background subtraction was performed using a region without the cell. Signals were converted to relative changes (F/F0) where F0 was the ratio of the average fluorescent intensity (340/380) of ROIs at 0 time point. A total of 20 cells/coverslip were recorded. ΔF/F0 represents average peak fluorescent intensity changes of three independent experiments.

With “DITLVHDIVNMLIHG (listed as Homo sapiens) [SEQ ID NO:3, amino acids 235-249 of human SPLUNC1]” the “plasma (serum) HDM-specific IgE levels” value [1] was “significantly reduced; also recorded: reduce blood IgE levels”, the “eosinophil influx (bronchoalveolar lavage)” value ([2]; peptide 320 μM / 320 μM intranasally once per day on day 15 and day 16) was “decreased” and the “bronchoalveolar lavage total cell count” value ([2]; peptide 320 μM / 320 μM intranasally once per day on day 15 and day 16, listed as short α6 peptide) was “significantly reduced”. The “bronchoalveolar lavage total cell count” value ([2]; peptide 320 μM / 320 μM intranasally once per day on day 15 and day 16, listed as α6 peptide) was “reduce inflammatory cell counts” and the “neutrophil influx (bronchoalveolar lavage)” value ([2]; peptide 320 mM / 320 μM intranasally once per day on day 15 and day 16) was “decreased”.

For “DITLVHDIVNMLIHGLQFVIKV (listed as Homo sapiens) [SEQ ID NO:2, amino acids 235-256 of human SPLUNC1]”, the “thapsigargin (TG)-induced Ca2+ flux (peak fura-2 ratio change)” value [3] was “inhibited” and the “thapsigargin (TG)-induced Ca2+ flux (peak fura-2 ratio change)” value ([3]; listed as SPLUNC1 derived peptide) was “inhibits thapsigargin-induced Ca^2+ release”.

“S18: N-terminal S18 region of SPLUNC1, its ENaC regulatory domain; synthesized peptide (GGLPVPLDQTLPLNVNPA) [reference compound]” was tested, and the “ability to suppress Ca2+ signaling, SPLUNC1 mutants/peptides” value [3] was “did not inhibit SOCE”.

B1: mouse SPLUNC1: mouse SPLUNC1 protein (protein)
chain: QLAGLPLPLGQGPPLPLNQGPPLPLNQGQLLPLAQGLPLAVSPALPSNPTDLLAGKFTDALSGGLLSGGLLGILENIPLLDVIKSGGGNSNGLVGGLLGKLTSSVPLLNNILDIKITDPQLLELGLVQSPDGHRLYVTIPLGLTLNVNMPVVGSLLQLAVKLNITAEVLAVKDNQGRIHLVLGDCTHSPGSLKISLLNGVTPVQSFLDNLTGILTKVLPELIQGKVCPLVNGILSGLDVTLVHNIAELLIHGLQFVIKV
In the case of B1, the “ability to suppress Ca2+ signaling, SPLUNC1 mutants/peptides” value [3] is reported as “Inhibition was not different”.

— US10894811B2, “Peptide inhibitors of calcium channels” (The University of North Carolina at Chapel Hill, priority 2016, dated 2021)
